pIC50: −log10 of the molar value. Bounds are passed on as bounds.

The target of data set [1] is T1, Vasopressin V1a receptor (Homo sapiens, UniProt P37288). Kind of data set: Antagonist activity at human vasopressin V1a receptor expressed in HEK293 cells assessed as inhibition of Arg-vasopressin-induced intracellular calcium level. The format is functional, cell-based. (Calcium flux is commonly read through the fluorescence of an indicator in the cells.)
Target sequence in this assay (P37288 whole entry): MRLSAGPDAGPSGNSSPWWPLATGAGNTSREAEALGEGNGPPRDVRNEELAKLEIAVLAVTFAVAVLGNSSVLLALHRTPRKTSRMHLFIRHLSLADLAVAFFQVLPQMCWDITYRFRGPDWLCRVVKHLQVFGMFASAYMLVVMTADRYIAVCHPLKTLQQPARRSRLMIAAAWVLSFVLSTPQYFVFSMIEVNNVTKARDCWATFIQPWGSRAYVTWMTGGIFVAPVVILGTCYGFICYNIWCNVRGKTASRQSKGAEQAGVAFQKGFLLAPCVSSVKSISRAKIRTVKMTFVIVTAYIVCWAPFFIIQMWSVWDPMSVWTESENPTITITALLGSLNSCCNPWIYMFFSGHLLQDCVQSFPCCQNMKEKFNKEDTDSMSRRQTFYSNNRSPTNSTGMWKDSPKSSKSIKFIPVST
Data set [2] has as its target T2, Vasopressin V2 receptor (Homo sapiens, UniProt P30518). The experiment in a line: Antagonist activity at human vasopressin V2 receptor expressed in HEK293 cells assessed as inhibition of Arg-vasopressin-induced cAMP levels. The format is functional, cell-based. On the technique in general: cAMP levels reflect the balance of adenylyl cyclase and phosphodiesterase activity.

The target in data set [3] is T1, Vasopressin V1a receptor. Kind of data set: Displacement of [3H]Arg-vasopressin from human recombinant vasopressin V1a receptor expressed in HEK293 cells. The format is cell-based. On the technique in general: In a radioligand displacement assay an active substance lowers the binding of a labelled ligand.
Target sequence in this assay (P37288 whole entry): as above
Data set [4] addresses T2, Vasopressin V2 receptor. Kind of data set: Displacement of [3H]Arg-vasopressin from human recombinant vasopressin V2 receptor expressed in HEK293 cells. Format: cell-based.
In data set [5] the target is T1, Vasopressin V1a receptor. Kind of data set: Displacement of [3H]Arg-vasopressin from human recombinant vasopressin V1a receptor expressed in HEK293 cells at 100 nM. Format: cell-based.
Target sequence in this assay (P37288 whole entry, looked up): as the sequence (P37288 whole entry) above
Data set [6] has as its target T2, Vasopressin V2 receptor. The experiment in a line: Displacement of [3H]Arg-vasopressin from human recombinant vasopressin V2 receptor expressed in HEK293 cells at 100 nM. The format is cell-based.
Data set [7] deals with Rattus norvegicus. Kind of data set: Aquaretic effect in hydrated conscious rat assessed as reduction of urine osmolality at 10 mg/kg, po relative to control. The format is functional. More on the design: scale not given: the % may be the effect or the level left.
Data set [8] relates to Rattus norvegicus. The experiment in a line: Aquaretic effect in hydrated conscious rat assessed as increase in urine volume at 1 mg/kg, po relative to control. The format is functional.
In data set [9] the test system is Rattus norvegicus. The experiment in a line: Aquaretic effect in hydrated conscious rat assessed as increase in urine volume at 3 mg/kg, po relative to control. The format is functional.
The target in data set [10] is Vasopressin V1a receptor (Rattus norvegicus, UniProt P30560). The experiment in a line: Antagonist activity at rat vasopressin V1a receptor expressed in HEK293 cells assessed as inhibition of Arg-vasopressin-induced intracellular calcium level. The format is functional, cell-based.
Data set [11] is described as follows: Half life in cynomolgus monkey plasma. Format: ADME, organism-based, Macaca fascicularis.
A short description of data set [12]: Half life in dog plasma. Format: ADME, organism-based, Canis lupus familiaris.
The nature of data set [13]: Oral bioavailability in rat. Format: ADME, organism-based. The conditions noted are these: in vivo.
Data set [14] is described as follows: Half life in rat plasma. The format is ADME, organism-based.
Data set [15] can be described thus: Aqueous solubility at pH 7.4. Format: physicochemical.
Data set [16] relates to Rattus norvegicus. The experiment in a line: Reversal of Arg-vasopressin-induced hypertension in iv dosed Long-Evans rat assessed as reduction of blood pressure. The format is functional.
The subject of data set [17] is Rattus norvegicus. Kind of data set: Aquaretic effect in hydrated conscious rat assessed as increase in urine volume at 30 mg/kg, po relative to control. Format: functional.
Data set [18] is described as follows: Oral bioavailability in cynomolgus monkey. The conditions noted are these: in vivo. Format: ADME, organism-based, Macaca fascicularis.
Data set [19] deals with Rattus norvegicus. The experiment in a line: Aquaretic effect in hydrated conscious rat assessed as reduction of urine osmolality at 1 mg/kg, po relative to control. The format is functional. More on the design: scale not given: the % may be the effect or the level left.
The test system of data set [20] is Rattus norvegicus. The experiment in a line: Aquaretic effect in hydrated conscious rat assessed as increase in urine volume at 10 mg/kg, po relative to control. The format is functional.
The subject of data set [21] is Canis familiaris. Kind of data set: Aquaretic effect in Beagle dog assessed as increase in urine volume at 30 mg/kg, po relative to control. The format is functional, Canis lupus familiaris.
The nature of data set [22]: Oral bioavailability in dog. Format: ADME, organism-based, Canis lupus familiaris. Conditions: in vivo.
Data set [23] has as its system Canis familiaris. Kind of data set: Aquaretic effect in Beagle dog assessed as reduction of urine osmolality at 30 mg/kg, po relative to control. Also noted: scale not given: the % may be the effect or the level left. The format is functional, Canis lupus familiaris.
Data set [24] concerns Rattus norvegicus. Kind of data set: Aquaretic effect in hydrated conscious rat assessed as reduction of urine osmolality at 3 mg/kg, po relative to control. The format is functional. More on the design: scale not given: the % may be the effect or the level left.
Data set [25] concerns the target Vasopressin V2 receptor (Rattus norvegicus, UniProt Q00788). The experiment in a line: Antagonist activity at rat vasopressin V2 receptor expressed in HEK293 cells assessed as inhibition of Arg-vasopressin-induced cAMP levels. The format is functional, cell-based.
The test system of data set [26] is Rattus norvegicus. Kind of data set: Aquaretic effect in hydrated conscious rat assessed as reduction of urine osmolality at 30 mg/kg, po relative to control. Format: functional. More on the design: scale not given: the % may be the effect or the level left.

T2 sequence (P30518 whole entry): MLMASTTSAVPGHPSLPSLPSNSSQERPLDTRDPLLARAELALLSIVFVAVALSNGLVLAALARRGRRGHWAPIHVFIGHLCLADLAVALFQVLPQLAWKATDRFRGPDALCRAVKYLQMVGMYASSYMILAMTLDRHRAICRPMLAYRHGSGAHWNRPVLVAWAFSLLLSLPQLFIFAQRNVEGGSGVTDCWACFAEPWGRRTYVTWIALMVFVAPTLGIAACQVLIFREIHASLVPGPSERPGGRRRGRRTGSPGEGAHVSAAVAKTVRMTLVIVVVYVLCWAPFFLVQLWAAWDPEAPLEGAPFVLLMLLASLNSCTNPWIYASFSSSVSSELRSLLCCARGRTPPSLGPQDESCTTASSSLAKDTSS
Chain of Vasopressin V1a receptor (Rattus norvegicus, UniProt P30560) (P30560 whole entry): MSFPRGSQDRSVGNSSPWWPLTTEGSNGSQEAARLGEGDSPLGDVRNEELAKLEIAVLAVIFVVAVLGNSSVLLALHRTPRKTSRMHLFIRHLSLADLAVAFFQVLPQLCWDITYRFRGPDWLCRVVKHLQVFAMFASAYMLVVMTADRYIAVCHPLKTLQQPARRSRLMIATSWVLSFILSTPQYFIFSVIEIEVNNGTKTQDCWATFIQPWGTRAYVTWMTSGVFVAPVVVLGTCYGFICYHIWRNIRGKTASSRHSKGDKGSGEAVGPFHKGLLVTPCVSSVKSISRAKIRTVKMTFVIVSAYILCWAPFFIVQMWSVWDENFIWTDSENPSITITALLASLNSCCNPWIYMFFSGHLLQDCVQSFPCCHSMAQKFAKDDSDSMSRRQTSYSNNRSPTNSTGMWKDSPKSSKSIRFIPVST
Chain of Vasopressin V2 receptor (Rattus norvegicus, UniProt Q00788) (Q00788 whole entry): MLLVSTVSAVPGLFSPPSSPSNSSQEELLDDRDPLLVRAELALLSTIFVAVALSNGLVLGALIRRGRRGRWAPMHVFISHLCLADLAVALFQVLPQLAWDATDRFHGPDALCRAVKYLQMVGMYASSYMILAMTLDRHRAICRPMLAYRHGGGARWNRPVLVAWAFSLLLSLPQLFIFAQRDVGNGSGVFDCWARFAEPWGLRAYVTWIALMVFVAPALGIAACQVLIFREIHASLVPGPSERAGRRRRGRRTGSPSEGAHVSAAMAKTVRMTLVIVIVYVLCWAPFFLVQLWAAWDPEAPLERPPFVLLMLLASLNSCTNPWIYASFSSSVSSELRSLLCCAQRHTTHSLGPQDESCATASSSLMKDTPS

As for `O=C(Nc1ccc(C(=O)N2CCC3(C=C(CO)CC3)Cc3ccccc32)cc1)c1ccccc1-c1ccccc1` (stereo not given), the pIC50 (usually the IC50 on a negative log10 scale, so that one unit is a factor of ten) in data set [1] was 8.05; in [2], 6.72.
Turning to `Cc1ccc(F)cc1C(=O)Nc1ccc(C(=O)N2Cc3cccn3Cc3ccccc32)c(Cl)c1` [LIXIVAPTAN], the pIC50 in data set [1] was less than 5.30.
For `COc1cc(C(=O)N2CCC3(C=C(C(=O)O)CC3)Cc3ccccc32)ccc1NC(=O)c1cc(F)ccc1Cl` (stereo not given), the pIC50 was 7.05 in [1], 6.92 in [2], 7.72 in [3] and 7.04 in data set [4].
For the compound `Cc1ccc(F)cc1C(=O)Nc1ccc(C(=O)N2CCC3(C=C(C(=O)O)CC3)Cc3ccccc32)c(Cl)c1` (stereo not given), the Activity in data set [5] amounted to 10%; in data set [6], 67%.
With `O=C(O)C1=CC2(CC1)CCN(C(=O)c1ccc(NC(=O)c3ccccc3-c3ccccc3)cc1)c1ccccc1C2` (stereo not given), in data set [2], the pIC50 was 6.44.
Take `CNCC1=CC2(CC1)CCN(C(=O)c1ccc(NC(=O)c3cc(F)ccc3C)cc1Cl)c1ccccc1C2` (stereo not given): the Activity is 0% in [5] and 17% in data set [6].
As to `O=C(O)C1=CC2(CC1)CCN(C(=O)c1ccc(NC(=O)c3ccccc3F)cc1)c1ccccc1C2` (stereo not given), the pIC50 in data set [3] was 7.00. Besides, the Activity in data set [6] came out at 15%.
As to `CN(C)CCNC(=O)C1=C[C@@]2(CC1)CCN(C(=O)c1ccc(NC(=O)c3ccccc3-c3ccccc3)cc1)c1ccccc1C2`, the pIC50 in [1] was 7.35; in data set [2], 7.44; in data set [3], 8.70; in data set [4], 8.10.
For `CNCC1=CC2(CC1)CCN(C(=O)c1ccc(NC(=O)c3ccccc3-c3ccccc3)cc1)c1ccccc1C2` (stereo not given), in that order: 6.20, 5.74, 7.74 and 7.36.
In the case of `COc1cc(NC(=O)c2cc(F)ccc2C)ccc1C(=O)N1CCC2(C=C(C(=O)O)CC2)Cc2ccccc21` (stereo not given), the pIC50 in data set [1] is 4.94; in [2], 6.85. In addition, the Activity in [5] was found to be 15%.
For `COc1cc(C(=O)N2CC[C@]3(C=C(C(=O)O)CC3)Cc3ccccc32)ccc1NC(=O)c1cc(F)ccc1Cl`, the Activity in [7] is on record as 52%; in [8], 130%; in data set [9] it was 165%; in [17], 690%; in data set [19], 87%; in [20] it was 310%. Besides, the Activity was 1130% in data set [21], -78% in data set [23], 48% in data set [24] and 83% in [26]. For the same compound, the pIC50 in data set [10] was 6.19; in data set [25], 7.52; in data set [4], 7.47. The half-life (in general, the time needed for the level to fall by half in the phase considered) in [11] was 10.9 h; in data set [12], 5.1 h; in [14], 8.7 h. Moreover, the bioavailability – broadly, dose-corrected exposure relative to a reference, in per cent – was found to be 68% in data set [13], 23% in [18] and 45% in data set [22]. Besides, in [15], the solubility (as a rule, the dissolved amount per volume that the medium holds) was more than 1000 µg/mL. In addition, the ED50 – broadly, the dose at which the effect has come halfway, by size or by number of responders – in [16] is 0.644 mg/kg.
Turning to `COC(=O)C1=CC2(CC1)CCN(C(=O)c1ccc(NC(=O)c3cc(F)ccc3Cl)cc1)c1ccccc1C2` (stereo not given), the pIC50 in [1] was 6.72; in [2], less than 5.00; in [3], 7.40; in [4] it was less than 6.70.
For `COc1cc(C(=O)N2CC[C@]3(C=C(C4=NCCN4)CC3)Cc3ccccc32)ccc1NC(=O)c1cc(F)ccc1Cl`, the pIC50 in data set [2] was 5.98.
For the compound `COC(=O)C1=CC2(CC1)CCN(C(=O)c1ccc(NC(=O)c3ccccc3F)cc1)c1ccccc1C2` (stereo not given), the pIC50 is 6.89 in data set [1] and less than 5.00 in [2]. For the same compound, the Activity in data set [6] turned out to be 23%.
Consider `O=C(O)C1=CC2(CC1)CCN(C(=O)c1ccc(NC(=O)c3cc(F)ccc3Cl)cc1)c1ccccc1C2` (stereo not given), for which the pIC50 in data set [1] was 6.11; in data set [2], 6.39; in [3], 7.49; in data set [4], 7.12.
On to `Cc1ccc(F)cc1C(=O)Nc1ccc(C(=O)N2CCC3(C=C(CO)CC3)Cc3ccccc32)c(Cl)c1` (stereo not given), for which the pIC50 in data set [3] was 7.00. Further, the Activity in data set [6] was found to be 66%.

These data come from ChEMBL document CHEMBL1140572, “Next-generation spirobenzazepines: identification of RWJ-676070 as a balanced vasopressin V1a/V2 receptor antagonist for human clinical studies” (Bioorg Med Chem Lett, 2007).
